In brackets after ≈: the same amount, converted by molar mass. Counter-ions that a name gives are not always drawn. Like-named read-outs stand apart in the source and are kept apart here.
Experiments:
[1] = system: Borreliella spp.; test: MIC by broth microdilution against Borreliella strains; format: cell-based, Borreliella burgdorferi (n=5) and Borreliella garinii (n=1); conditions: BSK II medium, n = 6 isolates
Experimental: Minimal inhibitory concentrations (MIC) were determined against five (n=5) Borreliella burgdorferi isolates (ATCC 51990, 55131, 35211, 35210, 53899) and one (n=1) Borreliella garinii isolate (ATCC 51991) by broth microdilution technique ([…]., Jorgensen, J. H., Barbour, A. G. In vitro antimicrobial susceptibility testing of Boreliella burgdorferi: a microdilution MIC method and time-kill studies. […] Feng, J., Wang, T., Shi, W., et al. Identification of novel activity against Boreliella burgdorferi persisters using an FDA approved drug library. […] (2018) Methods for dilution antimicrobial susceptibility tests for bacteria that grow aerobically: Eleventh edition. […]; CLSI. (2021) Performance Standards for Antimicrobial Susceptibility Testing: Thirty-first Edition. M100-S31). Briefly, Borreliella spp. were grown at 36° C. under microaerophilic conditions in BSK II medium until the logarithmic or stationary growth phase was reached. The growth phase was determined by semiquantitative measurement of active and dormant cells by fluorescence microscopy of cells stained with the fluorescent dyes SYBR Green I and propidium iodide. An inoculum of 10^5-10^6 spirochetes/mL was used to inoculate broth microdilution plates containing serially 2-fold diluted test compounds.

[2] = system: Streptococcus pneumoniae ATCC49619; test: MIC by standard broth microdilution (CLSI), CAMHB; format: cell-based; conditions: for MIC: Streptococcus pneumoniae, ATCC49619
Experimental: (§1) The in vitro activity against bacteria including isolates that are resistant to Lefamulin was determined by standard broth microdilution according to the Clinical and Laboratory Standards Institute CLSI document (Performance Standards for Antimicrobial Susceptibility Testing) M100Ed29E (2019) and (Methods for Dilution Antimicrobial Susceptibility Test for Bacteria That Grow Aerobically) M07Ed11 (2018) or other years' versions thereof. The data were obtained using cation-adjusted Mueller Hinton broth medium (CAMHB).

[3] = system: Staphylococcus aureus vga(A) (+); test: MIC by standard broth microdilution (CLSI), CAMHB; format: cell-based; conditions: Lefamulin resistant; for MIC: Staphylococcus aureus
Experimental: as §1

[4] = system: Streptococcus agalactiae lsa(E); test: MIC by standard broth microdilution (CLSI), CAMHB; format: cell-based; conditions: for MIC: Streptococcus agalactiae, read-out: MIC Streptococcus agalactiae lsa(E) (n = 2), Lefamulin resistant, n = 2 isolates
Experimental: as §1

[5] = system: Staphylococcus aureus ATCC49951; test: MIC by standard broth microdilution (CLSI), CAMHB; format: cell-based; conditions: for MIC: Staphylococcus aureus, ATCC49951
Experimental: as §1

[6] = system: Staphylococcus aureus cfr (+); test: MIC by standard broth microdilution (CLSI), CAMHB; format: cell-based; conditions: for MIC: Staphylococcus aureus, read-out: MIC Staphylococcus aureus cfr (+) (n = 2), Lefamulin resistant, n = 2 isolates
Experimental: as §1

[7] = Cytotoxicity, human hepatocyte assay (ATPlite); format: cell-based; conditions: primary human hepatocytes
Experimental: The cytotoxicity for compounds of the present invention was determined using a human hepatocyte assay. Primary human hepatocytes were incubated with various test compound concentrations (in triplicate) for 2 hours. Viability of cells is then measured by the luminescence ATPlite detection assay system according to the manufacturer (Perkin Elmer). ATP is a marker for cell viability because it is present in all metabolically active cells and the concentration declines very rapidly when the cells undergo necrosis or apoptosis. The ATPlite assay system is based on the production of light caused by the reaction of ATP with added luciferase and D-luciferin, where the emitted light is proportional to the ATP concentration (within certain limits).

[8] = system: Cutibacterium avidum; test: MIC by standard agar dilution (CLSI M11), anaerobic; format: cell-based; conditions: Wilkins-Chalgren-Agar, 48 h, 37° C., read-out: MIC Cutibacterium avidum (n = 5)
[9] = system: Cutibacterium acnes; test: as above; format: cell-based; conditions: Wilkins-Chalgren-Agar, 48 h, 37° C., read-out: MIC Cutibacterium acnes (n = 5)
[10] = system: Cutibacterium granulosum; test: as above; format: cell-based; conditions: Wilkins-Chalgren-Agar, 48 h, 37° C., read-out: MIC Cutibacterium granulosum (n = 7)
[11] = 192 h, stationary growth phase, read after 8 days, read-out: MIC (μg/mL) for Stationary Growth Phase Culture (n = 6)
[12] = logarithmic growth phase, read after 5 or 6 days, read-out: MIC (μg/mL) for Logarithmic Growth Phase Culture (n = 6)
[13] = Lefamulin resistant, n = 2 isolates

CC1(C)S[C@@H]2[C@H](NC(=O)[C@H](N)c3ccc(O)cc3)C(=O)N2[C@H]1C(=O)O [Amoxicillin]
MIC [1, 11]: 0.03 to 0.12 µg/mL (≈ 0.0821 to 0.328 µM) | MIC [1, 12]: 0.03 to 0.12 µg/mL (≈ 0.0821 to 0.328 µM)

C[C@H]1c2cccc(O)c2C(=O)C2=C(O)[C@]3(O)C(=O)C(C(N)=O)=C(O)[C@@H](N(C)C)[C@@H]3[C@@H](O)[C@@H]21 [Doxycycline]
MIC [1, 11]: 0.03 to 0.5 µg/mL (≈ 0.0675 to 1.13 µM) | MIC [1, 12]: 0.03 to 0.5 µg/mL (≈ 0.0675 to 1.13 µM)

CO/N=C(\C(=O)N[C@@H]1C(=O)N2C(C(=O)O)=C(CSc3nc(=O)c(=O)[nH]n3C)CS[C@H]12)c1csc(N)n1 [Ceftriaxone]
MIC [1, 11]: 0.004 to 0.03 µg/mL (≈ 0.00721 to 0.0541 µM) | MIC [1, 12]: 0.004 to 0.016 µg/mL (≈ 0.00721 to 0.0289 µM)

12-epi-12-desvinyl-14-O-[(azepan-4-ylsulfanyl)-acetyl]-12-((E)-2-pyridin-3-yl-ethenyl) mutilin hydrochloride [Example 154 of WO 2015/110481, reference compound]
MIC Streptococcus pneumoniae ATCC49619 [2]: ≤0.03 µg/mL | MIC Staphylococcus aureus vga(A) (+) [3]: 2 to 4 µg/mL | MIC Streptococcus agalactiae lsa(E) (n = 2) [4, 13]: 4 to 8 µg/mL | MIC Staphylococcus aureus ATCC49951 [5]: ≤0.03 µg/mL | MIC Staphylococcus aureus cfr (+) (n = 2) [6, 13]: 0.5 to 4 µg/mL

C[C@@H]1CC[C@@]23CCC(=O)[C@H]2[C@]1(C)[C@H](OC(=O)CS[C@H]1CO[C@H]2[C@@H]1OC[C@@H]2N)C[C@](C)(/C=C/c1cncnc1)[C@@H](O)[C@@H]3C [Example 2, 12-epi-12-Desvinyl-14-O-{[(3S,3aR,6S,6aS)-3-amino-2,3,3a,5,6,6a-hexahydrofuro[3,2-b]furan-6-yl]sulfanylacetyl}-12-[(E)-2-(pyrimidin-5-yl)-ethenyl]-mutilin dihydrochloride]
MIC [1, 11]: 0.001 to 0.004 µg/mL | MIC [1, 12]: 0.001 to 0.002 µg/mL | IC50 at 2 h [7]: > 609 µM | MIC [8]: 0.015 to 0.06 µg/mL | MIC [2]: ≤ 0.03 µg/mL | MIC [3]: 1 µg/mL | MIC [4]: 0.03 to 0.06 µg/mL | MIC [5]: ≤ 0.03 µg/mL | MIC [6]: 0.12 to 1 µg/mL | MIC [9]: 0.015 to 0.12 µg/mL | MIC [10]: 0.015 to 0.03 µg/mL

C[C@H]1COc2c(N3CCN(C)CC3)c(F)cc3c(=O)c(C(=O)O)cn1c23 [Levofloxacin]
MIC [1, 11]: 2 to 8 µg/mL (≈ 5.53 to 22.1 µM) | MIC [1, 12]: 2 to 4 µg/mL (≈ 5.53 to 11.1 µM)

CC[C@H]1OC(=O)[C@H](C)[C@@H](O[C@H]2C[C@@](C)(OC)[C@@H](O)[C@H](C)O2)[C@H](C)[C@@H](O[C@@H]2O[C@H](C)C[C@H](N(C)C)[C@H]2O)[C@](C)(O)C[C@@H](C)CN(C)[C@H](C)[C@@H](O)[C@]1(C)O [Azithromycin]
MIC [1, 11]: 0.001 to 0.004 µg/mL (≈ 0.00134 to 0.00534 µM) | MIC [1, 12]: 0.001 to 0.004 µg/mL (≈ 0.00134 to 0.00534 µM)

Cc1nccnc1/C=C/[C@@]1(C)C[C@@H](OC(=O)CSC2CCNCC2)[C@]2(C)[C@H](C)CC[C@]3(CCC(=O)[C@H]32)[C@@H](C)[C@@H]1O [BC-9842, 12-epi-12-desvinyl-14-O-[(Piperidin-4-ylsulfanyl]-acetyl]-12-[2-(3-methyl-pyrazin-2-yl)-ethenyl]-mutilin]
MIC [1, 11]: 0.001 to 0.004 µg/mL (≈ 0.00175 to 0.00702 µM) | MIC [1, 12]: 0.001 to 0.004 µg/mL (≈ 0.00175 to 0.00702 µM) | MIC [8]: 0.015 to 0.25 µg/mL (≈ 0.0263 to 0.439 µM) | MIC [9]: 0.03 to 0.05 µg/mL (≈ 0.0526 to 0.0877 µM) | MIC [10]: 0.015 to 0.12 µg/mL (≈ 0.0263 to 0.211 µM)

C=C[C@]1(C)C[C@@H](OC(=O)CO)[C@]2(C)[C@H](C)CC[C@]3(CCC(=O)[C@H]32)[C@@H](C)[C@@H]1O [Pleuromutilin]
MIC [1, 11]: 0.12 to 2 µg/mL (≈ 0.317 to 5.28 µM) | MIC [1, 12]: 0.12 to 1 µg/mL (≈ 0.317 to 2.64 µM)

C=C[C@]1(C)C[C@@H](OC(=O)CS[C@@H]2CC[C@@H](N)C[C@H]2O)[C@]2(C)[C@H](C)CC[C@]3(CCC(=O)[C@H]32)[C@@H](C)[C@@H]1O [Lefamulin, reference compound]
MIC [1, 11]: 0.001 to 0.008 µg/mL (≈ 0.00197 to 0.0158 µM) | MIC [1, 12]: 0.001 to 0.008 µg/mL (≈ 0.00197 to 0.0158 µM) | MIC [8]: 0.03 to 0.06 µg/mL (≈ 0.0591 to 0.118 µM) | MIC [2]: ≤ 0.03 µg/mL | MIC [3]: 8 µg/mL (≈ 15.8 µM) | MIC [4]: 16 µg/mL (≈ 31.5 µM) | MIC [5]: ≤ 0.03 µg/mL | MIC [6]: 16 µg/mL (≈ 31.5 µM) | MIC [9]: 0.03 to 0.5 µg/mL (≈ 0.0591 to 0.985 µM) | MIC [10]: 0.015 to 0.25 µg/mL (≈ 0.0295 to 0.492 µM)

C[C@@H]1CC[C@@]23CCC(=O)[C@H]2[C@]1(C)[C@H](OC(=O)CS[C@H]1CO[C@H]2[C@@H]1OC[C@@H]2N)C[C@](C)(/C=C/c1cccnc1)[C@@H](O)[C@@H]3C [Example 1, 12-epi-12-Desvinyl-14-O-{[(3S,3aR,6S,6aS)-3-amino-2,3,3a,5,6,6a-hexahydrofuro[3,2-b]furan-6-yl]sulfanylacetyl}-12-[(E)-2-(3-pyridyl)-ethenyl]-mutilin dihydrochloride]
MIC [1, 11]: 0.001 to 0.004 µg/mL | MIC [1, 12]: 0.001 to 0.002 µg/mL | IC50 at 2 h [7]: 215 µM | MIC [8]: 0.015 to 0.06 µg/mL | MIC [2]: ≤ 0.03 µg/mL | MIC [3]: 0.5 µg/mL | MIC [4]: 0.06 to 0.12 µg/mL | MIC [5]: ≤ 0.03 µg/mL | MIC [6]: 0.12 to 0.5 µg/mL | MIC [9]: 0.015 to 0.12 µg/mL | MIC [10]: 0.015 to 0.03 µg/mL

CO/N=C(\C(=O)N[C@@H]1C(=O)N2C(C(=O)O)=C(COC(N)=O)CS[C@H]12)c1ccco1 [Cefuroxime]
MIC [1, 11]: 0.016 to 0.25 µg/mL (≈ 0.0377 to 0.589 µM) | MIC [1, 12]: 0.016 to 0.25 µg/mL (≈ 0.0377 to 0.589 µM)

CC[C@H]1OC(=O)[C@H](C)[C@@H](O[C@H]2C[C@@](C)(OC)[C@@H](O)[C@H](C)O2)[C@H](C)[C@@H](O[C@@H]2O[C@H](C)C[C@H](N(C)C)[C@H]2O)[C@](C)(O)C[C@@H](C)C(=O)[C@H](C)[C@@H](O)[C@]1(C)O [Erythromycin]
MIC [1, 11]: 0.001 to 0.004 µg/mL (≈ 0.00136 to 0.00545 µM) | MIC [1, 12]: 0.002 to 0.016 µg/mL (≈ 0.00273 to 0.0218 µM)

Cc1nccnc1/C=C/[C@@]1(C)C[C@@H](OC(=O)CS[C@H]2CO[C@H]3[C@@H]2OC[C@@H]3N)[C@]2(C)[C@H](C)CC[C@]3(CCC(=O)[C@H]32)[C@@H](C)[C@@H]1O [Example 3, 12-epi-12-Desvinyl-14-O-{[(3S,3aR,6S,6aS)-3-amino-2,3,3a,5,6,6a-hexahydrofuro[3,2-b]furan-6-yl]sulfanylacetyl}-12-[(E)-2-(3-methyl-pyrazin-2-yl)-ethenyl]-mutilin dihydrochloride]
MIC [1, 11]: 0.001 to 0.008 µg/mL | MIC [1, 12]: 0.001 to 0.004 µg/mL | IC50 at 2 h [7]: > 433 µM | MIC [8]: 0.03 to 0.25 µg/mL | MIC [2]: ≤ 0.03 µg/mL | MIC [3]: 1 µg/mL | MIC [4]: 0.5 to 1 µg/mL | MIC [5]: ≤ 0.03 µg/mL | MIC [6]: 1 µg/mL | MIC [9]: 0.03 to 0.5 µg/mL | MIC [10]: 0.015 to 0.12 µg/mL

— patent US20240208989A1, “NOVEL 12-EPI-MUTILIN COMPOUNDS AND USES THEREOF” (NABRIVA THERAPEUTICS GMBH, priority 2021, published 2024)
